Measurements from ChEMBL document CHEMBL4376834, “Discovery of 4H-Chromen-4-one Derivatives as a New Class of Selective Rho Kinase (ROCK) Inhibitors, which Showed Potent Activity in ex Vivo Diabetic Retinopathy Models” (J Med Chem, 2019).

Legend:
[1] = target: Tyrosine-protein kinase ABL1 (Homo sapiens, UniProt P00519, Y253F); test: Inhibition of human recombinant ABL1 Y253F mutant (27 to end residues) using EAIYAAPFAKKK as substrate incubated for 40 mins in presence of [gamma-33P]ATP by radiometric scintillation counting analysis
[2] = Inhibition of recombinant human DDR1 V833L mutant (492 to end residues) using KKKSPGEYVNIEF as substrate after 40 mins in presence of [gamma-33ATP] by radiometric scintillation counting analysis
[3] = target: Tyrosine-protein kinase CSK (Homo sapiens, UniProt P41240); test: Inhibition of recombinant full length human CSK using poly(Glu, Tyr) 4:1 as substrate incubated 40 mins in presence of [gamma-33ATP] by radiometric scintillation counting analysis
[4] = target: eIF-2-alpha kinase GCN2 (Homo sapiens, UniProt Q9P2K8, E556G); test: Inhibition of recombinant full length human GCN2 E556G mutant using RSRSRSRSRSRSR as substrate after 40 mins in presence of [gamma-33ATP] by radiometric scintillation counting analysis
Chain of eIF-2-alpha kinase GCN2 (Q9P2K8 whole entry E556G): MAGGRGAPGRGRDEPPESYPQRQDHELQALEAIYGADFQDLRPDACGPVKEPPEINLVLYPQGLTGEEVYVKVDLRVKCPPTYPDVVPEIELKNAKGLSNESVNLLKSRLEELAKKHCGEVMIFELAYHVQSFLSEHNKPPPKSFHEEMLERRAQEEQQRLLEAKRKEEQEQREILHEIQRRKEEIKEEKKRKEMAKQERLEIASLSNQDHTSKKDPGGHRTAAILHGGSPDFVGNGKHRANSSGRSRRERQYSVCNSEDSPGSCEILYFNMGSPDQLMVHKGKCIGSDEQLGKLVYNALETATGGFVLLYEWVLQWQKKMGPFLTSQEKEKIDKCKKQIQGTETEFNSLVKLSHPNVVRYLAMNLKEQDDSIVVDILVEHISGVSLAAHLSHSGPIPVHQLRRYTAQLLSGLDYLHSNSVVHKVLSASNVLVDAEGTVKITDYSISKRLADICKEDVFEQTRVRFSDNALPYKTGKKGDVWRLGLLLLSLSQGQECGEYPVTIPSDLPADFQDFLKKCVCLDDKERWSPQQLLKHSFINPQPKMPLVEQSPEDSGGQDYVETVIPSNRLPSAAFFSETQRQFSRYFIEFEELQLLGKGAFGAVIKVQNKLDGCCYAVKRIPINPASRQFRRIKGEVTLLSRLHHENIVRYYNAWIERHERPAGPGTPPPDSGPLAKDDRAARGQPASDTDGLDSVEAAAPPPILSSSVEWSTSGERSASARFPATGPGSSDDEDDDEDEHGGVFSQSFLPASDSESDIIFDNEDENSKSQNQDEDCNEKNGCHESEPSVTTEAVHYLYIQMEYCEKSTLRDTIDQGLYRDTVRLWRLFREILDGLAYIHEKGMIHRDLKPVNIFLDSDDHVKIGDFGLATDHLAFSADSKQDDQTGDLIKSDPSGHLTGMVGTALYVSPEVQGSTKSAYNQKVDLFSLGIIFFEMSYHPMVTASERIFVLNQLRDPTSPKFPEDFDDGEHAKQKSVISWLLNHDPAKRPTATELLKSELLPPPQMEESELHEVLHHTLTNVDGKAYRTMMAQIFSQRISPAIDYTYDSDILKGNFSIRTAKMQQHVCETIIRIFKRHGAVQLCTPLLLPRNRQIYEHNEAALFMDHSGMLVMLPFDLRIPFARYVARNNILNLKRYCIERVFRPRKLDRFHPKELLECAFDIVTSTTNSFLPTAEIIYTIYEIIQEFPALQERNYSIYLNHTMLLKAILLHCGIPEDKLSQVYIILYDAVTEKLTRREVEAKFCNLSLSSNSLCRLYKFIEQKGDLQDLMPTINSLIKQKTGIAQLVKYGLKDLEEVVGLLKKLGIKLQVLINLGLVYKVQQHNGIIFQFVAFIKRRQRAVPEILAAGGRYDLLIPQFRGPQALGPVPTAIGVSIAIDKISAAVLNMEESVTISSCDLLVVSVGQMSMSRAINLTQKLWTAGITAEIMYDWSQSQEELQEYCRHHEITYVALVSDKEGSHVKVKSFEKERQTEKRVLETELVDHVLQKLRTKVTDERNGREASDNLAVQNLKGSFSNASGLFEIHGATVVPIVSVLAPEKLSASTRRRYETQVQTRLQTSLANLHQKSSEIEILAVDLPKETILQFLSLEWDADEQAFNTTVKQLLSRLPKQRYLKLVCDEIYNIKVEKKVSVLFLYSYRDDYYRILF

[5] = target: Casein kinase II subunit alpha (Homo sapiens, UniProt P68400); test: Inhibition of recombinant full length human CK2alpha1 using RRRDDDSDDD as substrate incubated 40 mins in presence of [gamma-33ATP] by radiometric scintillation counting analysis
Chain of Casein kinase II subunit alpha (P68400 whole entry, the tested form may be a part): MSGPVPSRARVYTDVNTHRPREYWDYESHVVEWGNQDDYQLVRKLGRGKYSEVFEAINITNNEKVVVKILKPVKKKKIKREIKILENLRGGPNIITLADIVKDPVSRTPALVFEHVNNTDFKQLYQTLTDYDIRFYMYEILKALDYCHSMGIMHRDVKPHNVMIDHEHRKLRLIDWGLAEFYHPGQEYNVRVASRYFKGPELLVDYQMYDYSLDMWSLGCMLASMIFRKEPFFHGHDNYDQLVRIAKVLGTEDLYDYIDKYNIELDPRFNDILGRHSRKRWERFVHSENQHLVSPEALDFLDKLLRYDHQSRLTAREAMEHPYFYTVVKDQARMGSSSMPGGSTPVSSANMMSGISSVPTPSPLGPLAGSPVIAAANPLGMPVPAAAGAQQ

[6] = target: Serine/threonine-protein kinase WNK1 (Homo sapiens, UniProt Q9H4A3); test: Inhibition of recombinant human WNK1 (1 to 491 residues) using myelin basic protein as substrate incubated for 40 mins in presence of [gamma33P]ATP by radiometric scintillation counting analysis
[7] = target: Ribosomal protein S6 kinase alpha-5 (Homo sapiens, UniProt O75582); test: Inhibition of recombinant human MSK1 (2 to end residues) using GRPRTSSFAEGKK as substrate incubated for 40 mins in presence of [gamma-33ATP by radiometric scintillation counting analysis
[8] = target: Protein kinase C gamma type (Homo sapiens, UniProt P05129); test: Inhibition of recombinant full-length human PKCgamma using histone H1 as substrate incubated for 40 mins in presence of [gamma33P]ATP by radiometric scintillation counting analysis
[9] = target: Tyrosine-protein kinase ABL1 (Homo sapiens, UniProt P00519, H396P); test: Inhibition of human recombinant ABL1 H396P mutant (27 to end residues) using EAIYAAPFAKKK as substrate incubated for 40 mins in presence of [gamma-33P]ATP by radiometry scintillation counting analysis assay
[10] = target: FKBP12A/mTOR (Homo sapiens, UniProt P42345+P62942); test: Inhibition of recombinant full length human mTOR/FKBP12 measured after 40 mins in presence of [gamma33P]ATP by radiometric scintillation counting analysis; format: protein-complex assay
[11] = target: Proto-oncogene tyrosine-protein kinase Src (Homo sapiens, UniProt P12931); test: Inhibition of recombinant human SRC (1 to 530 residues) using GGEEEEYFELVKK as substrate incubated for 40 mins in presence of [gamma33P]ATP by radiometric scintillation counting analysis
[12] = target: Transient receptor potential cation channel subfamily M member 7 (Homo sapiens, UniProt Q96QT4); test: Inhibition of recombinant human CHAK1 (1180 to end residues) using myelin basic protein as substrate incubated for 40 mins in presence of [gamma-33ATP] by radiometric scintillation counting analysis
Chain of Transient receptor potential cation channel subfamily M member 7 (Q96QT4 whole entry): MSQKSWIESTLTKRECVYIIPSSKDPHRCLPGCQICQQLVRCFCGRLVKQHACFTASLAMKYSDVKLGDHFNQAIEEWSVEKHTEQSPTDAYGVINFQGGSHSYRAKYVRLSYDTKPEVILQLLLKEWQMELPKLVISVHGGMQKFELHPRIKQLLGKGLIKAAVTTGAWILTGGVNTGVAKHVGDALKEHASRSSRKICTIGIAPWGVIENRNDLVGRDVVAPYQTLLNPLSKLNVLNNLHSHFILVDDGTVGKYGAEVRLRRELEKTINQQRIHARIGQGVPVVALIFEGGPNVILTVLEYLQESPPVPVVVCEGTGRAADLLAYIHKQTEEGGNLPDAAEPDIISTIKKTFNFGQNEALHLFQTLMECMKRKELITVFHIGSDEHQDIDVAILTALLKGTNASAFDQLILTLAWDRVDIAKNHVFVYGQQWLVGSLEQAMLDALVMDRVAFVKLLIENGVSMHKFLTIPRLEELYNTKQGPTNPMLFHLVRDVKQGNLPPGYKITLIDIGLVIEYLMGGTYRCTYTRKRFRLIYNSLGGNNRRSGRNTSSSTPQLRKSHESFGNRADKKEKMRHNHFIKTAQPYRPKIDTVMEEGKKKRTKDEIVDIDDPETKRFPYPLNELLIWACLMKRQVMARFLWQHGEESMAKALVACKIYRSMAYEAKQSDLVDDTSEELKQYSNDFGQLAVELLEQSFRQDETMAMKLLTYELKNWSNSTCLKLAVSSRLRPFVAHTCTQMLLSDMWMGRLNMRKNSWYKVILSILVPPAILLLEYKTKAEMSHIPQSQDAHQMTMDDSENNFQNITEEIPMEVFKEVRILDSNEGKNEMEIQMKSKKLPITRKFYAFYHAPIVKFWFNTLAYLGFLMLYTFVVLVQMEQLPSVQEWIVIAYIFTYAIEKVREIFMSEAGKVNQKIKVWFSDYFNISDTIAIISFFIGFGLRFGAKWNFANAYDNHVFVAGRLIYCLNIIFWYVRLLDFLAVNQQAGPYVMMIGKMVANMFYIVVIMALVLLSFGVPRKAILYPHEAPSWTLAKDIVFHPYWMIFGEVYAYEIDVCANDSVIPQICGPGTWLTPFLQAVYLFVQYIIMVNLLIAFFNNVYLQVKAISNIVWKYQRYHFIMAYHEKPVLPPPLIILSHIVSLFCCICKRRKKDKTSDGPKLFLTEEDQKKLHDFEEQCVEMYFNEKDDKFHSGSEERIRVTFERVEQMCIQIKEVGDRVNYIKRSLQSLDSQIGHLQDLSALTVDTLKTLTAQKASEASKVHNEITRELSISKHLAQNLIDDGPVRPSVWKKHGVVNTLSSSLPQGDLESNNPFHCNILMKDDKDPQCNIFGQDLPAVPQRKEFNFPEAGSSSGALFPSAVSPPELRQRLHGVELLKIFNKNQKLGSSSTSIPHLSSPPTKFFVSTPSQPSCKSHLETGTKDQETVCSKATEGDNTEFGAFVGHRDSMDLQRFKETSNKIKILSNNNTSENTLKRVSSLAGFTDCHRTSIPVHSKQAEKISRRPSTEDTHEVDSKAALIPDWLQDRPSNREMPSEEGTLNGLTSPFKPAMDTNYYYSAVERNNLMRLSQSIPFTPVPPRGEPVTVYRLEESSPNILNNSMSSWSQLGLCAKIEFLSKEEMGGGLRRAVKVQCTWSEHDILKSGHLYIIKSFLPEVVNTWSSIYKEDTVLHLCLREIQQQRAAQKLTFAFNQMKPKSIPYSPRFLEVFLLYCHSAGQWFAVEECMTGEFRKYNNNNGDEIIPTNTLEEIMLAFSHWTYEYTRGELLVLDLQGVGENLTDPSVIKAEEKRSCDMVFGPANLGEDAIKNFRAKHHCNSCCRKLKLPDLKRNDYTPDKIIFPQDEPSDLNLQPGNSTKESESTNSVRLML

[13] = Inhibition of human PIP4K2
[14] = target: NT-3 growth factor receptor (Homo sapiens, UniProt Q16288); test: Inhibition of recombinant human TRKC (510 to end residues) using GEEPLYWSFPAKK as substrate incubated for 40 mins in presence of [gamma33P]ATP by radiometric scintillation counting analysis
[15] = Inhibition of recombinant human PAK2 L150F/P225T/A339 deletion/V383I mutant (3 to end residues) using KEAKEKRQEQIAKR as substrate incubated for 40 mins in presence of [gamma33P]ATP by radiometric scintillation counting analysis
[16] = target: Serine/threonine-protein kinase SIK2 (Homo sapiens, UniProt Q9H0K1); test: Inhibition of recombinant human SIK2 (1 to 276 residues) using KKKVSRSGLYRSP as substrate incubated for 40 mins in presence of [gamma33P]ATP by radiometric scintillation counting analysis
[17] = target: Serine/threonine-protein kinase Nek1 (Homo sapiens, UniProt Q96PY6); test: Inhibition of recombinant human NEK1 (1 to 505 residues) using RLGRDKYKTLRQI as substrate measured after 40 mins in presence of [gamma33P]ATP by radiometric scintillation counting analysis
[18] = target: Tyrosine-protein kinase BTK (Homo sapiens, UniProt Q06187, R28H); test: Inhibition of recombinant full length human BTK R28H mutant using KVEKIGEGTYGVV substrate incubated for 40 mins in presence of [gamma-33ATP] by radiometric scintillation counting analysis
[19] = target: Dual specificity protein kinase CLK4 (Homo sapiens, UniProt Q9HAZ1); test: Inhibition of recombinant human CLK4 (128 to end residues) using YRRAAVPPSPSLSR as substrate incubated 40 mins in presence of [gamma-33ATP] by radiometric scintillation counting analysis
[20] = target: Epidermal growth factor receptor (Homo sapiens, UniProt P00533); test: Inhibition of recombinant human EGFR (696 to end residues) using poly(Glu, Tyr) 4:1 as substrate after 40 mins in presence of [gamma-33ATP] by radiometric scintillation counting analysis
Chain of Epidermal growth factor receptor (P00533 whole entry): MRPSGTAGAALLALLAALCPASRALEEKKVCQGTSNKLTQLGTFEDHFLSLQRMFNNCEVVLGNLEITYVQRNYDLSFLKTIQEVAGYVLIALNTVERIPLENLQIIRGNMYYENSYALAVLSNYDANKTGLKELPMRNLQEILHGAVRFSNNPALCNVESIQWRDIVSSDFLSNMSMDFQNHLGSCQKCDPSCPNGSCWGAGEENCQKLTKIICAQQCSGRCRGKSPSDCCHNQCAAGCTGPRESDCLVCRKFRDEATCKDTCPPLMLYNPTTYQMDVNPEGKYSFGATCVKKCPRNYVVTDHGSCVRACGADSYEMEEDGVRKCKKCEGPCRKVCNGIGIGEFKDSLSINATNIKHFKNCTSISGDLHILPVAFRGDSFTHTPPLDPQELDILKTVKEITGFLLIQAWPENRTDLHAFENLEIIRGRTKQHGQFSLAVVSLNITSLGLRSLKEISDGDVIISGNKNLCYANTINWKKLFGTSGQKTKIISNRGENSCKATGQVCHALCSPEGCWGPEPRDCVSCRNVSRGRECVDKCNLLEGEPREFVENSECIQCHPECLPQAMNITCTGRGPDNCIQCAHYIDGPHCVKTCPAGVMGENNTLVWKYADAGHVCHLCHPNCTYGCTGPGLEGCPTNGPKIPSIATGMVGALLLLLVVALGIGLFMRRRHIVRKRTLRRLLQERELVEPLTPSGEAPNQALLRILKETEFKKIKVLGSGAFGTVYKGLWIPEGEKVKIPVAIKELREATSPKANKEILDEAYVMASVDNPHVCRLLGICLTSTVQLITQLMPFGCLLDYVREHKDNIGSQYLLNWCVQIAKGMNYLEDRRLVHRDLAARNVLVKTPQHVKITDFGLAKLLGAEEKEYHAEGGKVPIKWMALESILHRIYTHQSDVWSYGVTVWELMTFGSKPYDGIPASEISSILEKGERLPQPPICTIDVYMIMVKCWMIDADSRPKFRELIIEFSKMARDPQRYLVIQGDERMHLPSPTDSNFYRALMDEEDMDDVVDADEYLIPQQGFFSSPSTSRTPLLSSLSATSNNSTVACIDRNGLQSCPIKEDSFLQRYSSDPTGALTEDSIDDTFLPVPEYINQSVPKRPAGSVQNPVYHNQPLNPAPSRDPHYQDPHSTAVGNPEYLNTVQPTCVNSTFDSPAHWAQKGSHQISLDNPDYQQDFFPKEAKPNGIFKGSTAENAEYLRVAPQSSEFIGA

[21] = target: Calcium/calmodulin-dependent protein kinase type 1B (Homo sapiens, UniProt Q6P2M8); test: Inhibition of recombinant full length human CaMK1beta using KKLRRTLSFAEP as substrate incubated for 40 mins in presence of [gamma-33ATP] by radiometric scintillation counting analysis
[22] = target: Serine/threonine-protein kinase MRCK beta (Homo sapiens, UniProt Q9Y5S2); test: Inhibition of recombinant human MRCKbeta (1 to 473 residues) using KKRNRTLTV as substrate incubated for 40 mins in presence of [gamma-33ATP by radiometric scintillation counting analysis
[23] = target: Serine/threonine-protein kinase VRK1 (Homo sapiens, UniProt Q99986); test: Inhibition of human VRK1 in presence of 10 uM ATP by radiometric analysis
[24] = Inhibition of recombinant human TIE2 Q939H/Q940H/ R849W triple mutant (771 to end residues) using EFPIYDFLPAKKK as substrate incubated for 40 mins in presence of [gamma33P]ATP by radiometric scintillation counting analysis
[25] = target: Calcium/calmodulin-dependent protein kinase kinase 1 (Homo sapiens, UniProt Q8N5S9); test: Inhibition of recombinant full length human CaMKK1 using calmodulin as substrate incubated for 40 mins in presence of [gamma-33ATP] by radiometric scintillation counting analysis
[26] = target: LIM domain kinase 1 (Homo sapiens, UniProt P53667); test: Inhibition of recombinant human LIMK1 (285 to 638 residues) using cofilin as substrate after 40 mins in presence of [gamma-33ATP] by radiometric scintillation counting analysis

Measured: IC50

CN(C)c1ccc(C(=O)Nc2cccc(NC(=O)COc3ccc4c(=O)ccoc4c3)c2)cc1
> 10 µM: all assays above
